Source: publication PMC5325191, “Biotransformation of a potent anabolic steroid, mibolerone, with Cunninghamella blakesleeana, C. echinulata, and Macrophomina phaseolina, and biological activity evaluation of its metabolites” (PLoS ONE, 2017)
“Also recorded” adds a separate entry of the source. Where two headings read alike, the source gives them in different places.

Columns and labels:
[1] = tested on: progesterone receptor (PR); set-up: method as in PMID 18515094, PMID 24552459, PMID 11953818; conditions: mibolerone eliminates PR expression; 5α-dehydrotestosterone reduces PR to basal levels; ref [1]–[4]; cited from earlier work
[2] = tested on: Leishmania major promastigotes; experiment: leishmanicidal activity assay (72 h, microscopic counting); format: cell-based; conditions: for IC50: Leishmania major, read-out: Leishmanicidal activity IC50 ± SD
Procedure: Leishmania major (DESTO, Pakistan) was cultured in a mixture of NNN-biphasic medium, and normal physiological saline solution. L. major promastigotes were grown on RPMI 1640 medium, supplemented with fetal bovine serum (FBS) (10% heat inactivated). Parasites were centrifuged (at log phase) for 10 min at 2,000 rpm and washed thrice with saline. The final density of fresh culture (10^6 cells/mL) was acquired through dilution of parasites. Sample solution of 1 mg of test compounds was prepared in a mixture 50 μL of DMSO and 950 μL of RPMI media. Fully dissolved compounds were transferred to 96-well plate. The first row of 96-well plate received 180 μL of the medium, while the remaining wells received 100 μL medium. Test compounds (20 μL each) were added into the medium containing wells, followed by serial dilution. The parasite culture (100 μL) was then transferred to each well. Negative controls comprised of only the growth medium, while standard leishmanicidal drugs (amphotericin or pentamidine) were used as positive controls. The plate was then incubated for 72 h at 21–22°C. The inhibitory effect of test compounds on the culture was analyzed microscopically on an improved Neubauer counting chamber. IC50 values were calculated through Ezfit 5.03 Perella Scientific software (USA).

[3] = tested on: HeLa cancer cell line (human cervical carcinoma); experiment: MTT cytotoxicity assay, HeLa; format: cell-based; conditions: 24 hours treatment, read-out: HeLa Cell line IC50 ± SD
Procedure: (§1) MTT (3-(4,5-dimethyl thiazol-2yl)-2,5-diphenyl tetrazolium bromide) assay was employed to study the cytotoxic activity against HeLa (human cervical carcinoma, provided by Prof. Dr. Anwar Ali Siddiqui from Aga Khan University, Karachi, Pakistan), and mouse fibroblast 3T3 (ATCC® CRL-1658, purchased from American Type Culture Collection, ATCC, Virginia, USA) cell lines. The cells (1 × 10^5 /well) were plated in 0.2 mL of DMEM high glucose medium/well in 96-well plates. The cells were treated for 24 hours with test compounds in the range of 25, 50, 75, 100, and 200 μM concentrations, respectively. For the MTT assay, the medium from the wells was removed carefully after 24 hours treatment. Each well was washed with 1X PBS for 2–3 times, and 200 μL of MTT (5 mg/mL) was added in to media containing wells (1:10). The plates were incubated for 4 hours at 37°C, in a 5% CO2 incubator. After incubation, MTT was removed and 0.1 mL of DMSO was added to each well and mixed by keeping on a stirrer. The presence of viable cells was visualized by the development of purple color due to formation of the formazan crystals. The plates were observed under spectrophotometer (Spectramax) and absorbance was taken at 545 and 570 nm for cancer and normal cell lines, respectively.

[4] = tested on: 3T3 cell line (mouse fibroblast); experiment: MTT cytotoxicity assay, 3T3; format: cell-based; conditions: for IC50: read-out: 3T3 Cell line IC50 ± SD
Procedure: as §1

[5] = biological target: T1, β-glucuronidase enzyme (E.C. 3.2.1.31, bovine liver) (Bos taurus, UniProt A3KMY8); experiment: β-glucuronidase inhibition assay (p-nitrophenyl-β-D-glucuronide, absorbance 405 nm); format: biochemical; conditions: for β-glucuronidase inhibitory activity IC50 ± SD: in vitro, bovine liver enzyme, 37°C, triplicate
T1 sequence (A3KMY8 24-652): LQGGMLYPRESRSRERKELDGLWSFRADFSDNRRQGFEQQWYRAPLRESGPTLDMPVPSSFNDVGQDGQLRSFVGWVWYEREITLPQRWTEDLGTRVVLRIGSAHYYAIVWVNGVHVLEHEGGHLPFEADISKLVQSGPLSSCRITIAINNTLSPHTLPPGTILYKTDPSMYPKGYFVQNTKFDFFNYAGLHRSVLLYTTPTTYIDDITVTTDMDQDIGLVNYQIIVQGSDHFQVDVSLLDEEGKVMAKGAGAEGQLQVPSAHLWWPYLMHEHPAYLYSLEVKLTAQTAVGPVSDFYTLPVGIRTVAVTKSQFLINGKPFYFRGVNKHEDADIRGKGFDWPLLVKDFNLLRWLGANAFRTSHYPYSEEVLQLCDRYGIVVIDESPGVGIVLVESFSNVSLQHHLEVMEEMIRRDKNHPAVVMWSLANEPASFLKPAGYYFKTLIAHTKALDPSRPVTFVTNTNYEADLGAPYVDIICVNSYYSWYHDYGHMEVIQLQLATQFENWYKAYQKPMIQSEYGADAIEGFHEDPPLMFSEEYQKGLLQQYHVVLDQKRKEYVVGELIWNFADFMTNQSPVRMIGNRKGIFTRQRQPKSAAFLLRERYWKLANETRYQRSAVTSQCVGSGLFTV
Procedure: The inhibition of β-glucuronidase enzyme (E.C. 3.2.1.31, bovine liver) by test compounds was determined on a spectrophotometer by measuring the absorbance of p-nitrophenol at 405 nm, produced from the substrate. The reaction mixture comprised 185 μL of 0.1 M acetate buffer, and 5 μL of test compound solution, and 10 μL of (1U) enzyme solution in a 96-well plate. The mixture was incubated at 37°C for 30 min. The test compounds were solubilized in DMSO (100%), and 5 μL volume was added in each well (2% of total volume). […] The plates were read on a multiplate reader (SpectraMax plus 384) at 405 nm and 37°C, after addition of 50 μL of 0.4 mM p-nitrophenyl-β-D-glucuronide. All assays were performed in triplicate. IC50 values were calculated through EZ-Fit software (Perrella Scientific Inc., Amherst, MA, USA).

[6] = Mus musculus, NIH3T3, 24 hours treatment
[7] = L. major promastigotes, 72 h at 21–22°C

Row | Structure (SMILES) | IC50 ([2]; 72 h) [µM] | IC50 ([3]; Homo sapiens, HeLa, 24 h) [µM] | IC50 [4, 6] [µM] | β-glucuronidase inhibitory activity IC50 ± SD [5] | other results
1 | C[C@]12CCC(=O)C[C@@H]1CC[C@@H]1[C@@H]2CC[C@]2(C)[C@@H](O)CC[C@@H]12 [5α-dehydrotestosterone] | – | – | – | – | dose that eliminates / reduces to basal levels progesterone receptor expression [1]: 10 to 100 nM
2 | C[C@@H]1[C@H](O)[C@@H](C)/C=C/C=C/C=C/C=C/C=C/C=C/C=C/[C@H](O[C@@H]2O[C@H](C)[C@@H](O)[C@H](N)[C@@H]2O)C[C@@H]2O[C@](O)(C[C@@H](O)C[C@@H](O)[C@H](O)CC[C@@H](O)C[C@@H](O)CC(=O)O[C@H]1C)C[C@H](O)[C@H]2C(=O)O [Amphotericin B, reference compound] | 0.29 ± 0.05 | – | – | – | –
3 | N.N.[Cl][Pt][Cl] [Cisplatin, reference compound] | – | – | – | – | IC50 [3]: 38.5 ± 1.8 µM; IC50 ([4]; 24 hours treatment): 39.7 ± 2.7 µM
4 | C[C@@H]1CC2=CC(=O)CC[C@@H]2[C@H]2CC[C@@]3(C)[C@@H](CC[C@]3(C)O)[C@@H]21 [Compound 1, 17β-Hydroxy-7α,17α-dimethylestr-4-en-3-one, reference compound] | 29.6 ± 0.88 | 35.7 ± 4.46 | 46.3 ± 11.7 | – | IC50 [5]: 43 ± 1.24 µM; dose that eliminates / reduces to basal levels progesterone receptor expression [1]: 1 nM
5 | CC1CC2=CC(=O)CCC2(O)C2CCC3(C)C(CCC3(C)O)C12 (stereo not drawn) [Compound 2, 10β,17β-Dihydroxy-7α,17α-dimethylestr-4-en-3-one] | – | 46.5 ± 5.4 | 43.3 ± 7.7 | Inactive | Leishmanicidal activity IC50 ± SD [2, 7]: Inactive
6 | C[C@H]1[C@@H]2[C@H](CC[C@@]3(C)[C@H]2CC[C@]3(C)O)[C@H]2CCC(=O)C=C2[C@@H]1O [Compound 3, 6β,17β-Dihydroxy-7α,17α-dimethylestr-4-en-3-one] | 79.09 ± 0.06 | 108 ± 4 | 65.6 ± 2.5 | Inactive | –
7 | CC1C(O)C2=CC(=O)CCC2(O)C2CCC3(C)C(CCC3(C)O)C12 (stereo not drawn) [Compound 4, 6β,10β,17β-Trihydroxy-7α,17α-dimethylestr-4-en-3-one] | – | 152 ± 2.1 | 89.4 ± 2.7 | Inactive | Leishmanicidal activity IC50 ± SD [2, 7]: Inactive
8 | CC1CC2=CC(=O)CCC2C2C(O)CC3(C)C(CCC3(C)O)C12 (stereo not drawn) [Compound 8, 11β,17β-Dihydroxy-7α,17α-dimethylestr-4-en-3-one] | 70.09 ± 0.05 | 34.2 ± 5.3 | – | Inactive | IC50 [3]: 34.1 ± 5.3 µM; 3T3 Cell line IC50 ± SD ([4]; 24 hours treatment): no cytotoxicity; also recorded: Inactive
9 | N=C(N)c1ccc(OCCCCCOc2ccc(C(=N)N)cc2)cc1 [Pentamidine, reference compound] | – | – | – | – | IC50 [2, 7]: 5.09 ± 0.09 µM
